Laboratory results taken from PMC6058925 (JACC: Basic to Translational Science, 2017).

Tested on: adult male CD1 mice, ischemia-reperfusion
Settings: mouse, in vivo

In the case of “AAT: plasma-derived alpha-1 antitrypsin (Aralast NP, Baxter)”, the “Infarct size when given with the LRP1 blocking antibody” value is reported as “significant increase in infarct size”.
